Measurements taken from patent US9861680B2, “Immunomodulators” (BRISTOL-MYERS SQUIBB COMPANY, priority 2014, dated 2018).
Numbered stars: 1 amine (or outer) side, 2 acyl side, 3 side chain; on linkers, the order of the positions; unused ones are H or OH. Bridge positions count the residues as written; N and C are the ends. Square brackets hold non-standard residues; d marks the D form. Peptide text beside a SMILES is read from it. X6 = O=C(O)CC[C@H](CC(=O)[C@H](Cc1cnc[nH]1)N[*:1])C(=O)[*:2]; X4 = NC(=O)C[C@H](N[*:1])C(=O)C1CCC[C@H]1C(=O)[*:2]; X5 = CCCC[C@@H](C(=O)[*:2])N(CC)[*:1]; X7 = COCCN([C@@H](C)C(=O)[*:2])[*:1]; X2 = C[C@@H](C(=O)[*:2])N(CCN)[*:1]; NBnAla = C[C@H](NCc1ccccc1)C(=O)O; Hyp = O=C(O)[C@@H]1C[C@@H](O)CN1; Gly(N-CH2CH2OH) = O=C(O)CNCCO; NMeNle = CCCC[C@H](NC)C(=O)O; NEtAla = CCN[C@@H](C)C(=O)O; NMeA = CN[C@@H](C)C(=O)O; Dab = NCC[C@H](N)C(=O)O

Target: T1, PD-1-Ig binding to PD-L1-TVMV-His (PD-L1-His) (Homo sapiens, UniProt Q9NZQ7)
T1 construct: hPDL1(19-239)-TVMV-His; made in house; host or cells: HEK293T
Experiment: PD-1/PD-L1 Homogenous Time-Resolved Fluorescence (HTRF) binding assay
Conditions: range class; PD-L1-His 10 nM, PD-1-Ig 20 nM
From the text: Methods for Testing the Ability of Macrocyclic Peptides to Compete for the Binding of Pd-1 to Pd-L1 Using Homogenous Time-Resolved Fluorescence (HTRF) Binding Assays
The ability of the macrocyclic peptides of the present disclosure to bind to PD-L1 was investigated using a PD-1/PD-L1 Homogenous Time-Resolved Fluorescence (HTRF) binding assay.
Homogenous Time-Resolved Fluorescence (HTRF) Assays of Binding of Soluble PD-1 to Soluble PD-L1. Soluble PD-1 and soluble PD-L1 refers to proteins with carboxyl-end truncations that remove the transmembrane-spanning regions and are fused to heterologous sequences, specifically the Fc portion of the human immunoglobuling G sequence (Ig) or the hexahistidine epitope tag (His). All binding studies were performed in an HTRF assay buffer consisting of dPBS supplemented with 0.1% (w/v) bovine serum albumin and 0.05% (v/v) Tween-20. For the PD-1-Ig/PD-L1-His binding assay, inhibitors were pre-incubated with PD-L1-His (10 nM final) for 15 m in 4 μl of assay buffer, followed by addition of PD-1-Ig (20 nM final) in 1 μl of assay buffer and further incubation for 15 m. PD-L1 fusion proteins from either human, cynomologous macaques, mouse, or other species were used. HTRF detection was achieved using europium crypate-labeled anti-Ig monoclonal antibody (1 nM final) and allophycocyanin (APC) labeled anti-His monoclonal antibody (20 nM final). Antibodies were diluted in HTRF detection buffer and 5 μl was dispensed on top of binding reaction. The reaction was allowed to equilibrate for 30 minutes and signal (665 nm/620 nm ratio) was obtained using an EnVision fluorometer. Additional binding assays were established between PD-1-Ig/PD-L2-His (20 and 5 nM, respectively), CD80-His/PD-L1-Ig (100 and 10 nM, respectively) and CD80-His/CTLA4-Ig (10 and 5 nM, respectively). Binding/competition studies between biotinylated Compound No. 71 and human PD-L1-His were performed as follows. Macrocyclic peptide inhibitors were pre-incubated with PD-L1-His (10 nM final) for 60 minutes in 4 μl of assay buffer followed by addition of biotinylated Compound No. 71 (0.5 nM final) in 1 μl of assay buffer. Binding was allowed to equilibrate for 30 minutes followed by addition of europium crypated labeled Streptavidin (2.5 pM final) and APC-labeled anti-His (20 nM final) in 5 μl of HTRF buffer. The reaction was allowed to equilibrate for 30 m and signal (665 nm/620 nm ratio) was obtained using an EnVision fluorometer.
Recombinant Proteins. Carboxyl-truncated human PD-1 (amino acids 25-167) with a C-terminal human Ig epitope tag [hPD-1 (25-167)-3S-IG] and human PD-L1 (amino acids 18-239) with a C-terminal His epitope tag [hPD-L1(19-239)-tobacco vein mottling virus protease cleavage site (TVMV)-His] were expressed in HEK293T cells and purified sequentially by recombinant Protein A affinity chromatography and size exclusion chromatography. Human PD-L2-His (Sino Biologicals), CD80-His (Sino Biologicals), CTLA4-Ig (RnD Systems) were all obtained through commercial sources.
Ranges are as follows: A=0.10-10 μM; B=0.01-0.099 μM; C=0.005-0.0099 μM.

T1 sequence (Q9NZQ7 with tags, fused parts or gaps): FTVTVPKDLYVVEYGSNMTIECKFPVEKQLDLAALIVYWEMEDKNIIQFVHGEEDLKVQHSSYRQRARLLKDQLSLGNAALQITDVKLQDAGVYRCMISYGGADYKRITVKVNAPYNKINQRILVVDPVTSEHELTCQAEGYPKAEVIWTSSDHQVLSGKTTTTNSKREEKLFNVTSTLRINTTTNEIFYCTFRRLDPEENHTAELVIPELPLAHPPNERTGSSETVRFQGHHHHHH

SMILES | IC50 [nM]
CCCC[C@H]1C(=O)N[C@@H](CC(C)C)C(=O)N[C@H](C(=O)NCC(N)=O)CSCC(=O)N[C@@H](Cc2ccc(O)cc2)C(=O)N(C)[C@@H](C)C(=O)N[C@@H](CC(N)=O)C(=O)N2CCC[C@H]2C(=O)N[C@@H](Cc2cnc[nH]2)C(=O)N[C@@H](CCC(=O)O)C(=O)N2C[C@H](O)C[C@H]2C(=O)N[C@@H](Cc2c[nH]c3ccccc23)C(=O)N[C@@H](CCN)C(=O)N[C@@H](Cc2c[nH]c3ccccc23)C(=O)N(CC)[C@@H](CCCC)C(=O)N1C [Example 3023] ({CH2CO}-Y[NMeA]NPHE[Hyp]W[Dab]W[X5][NMeNle]LCG-NH2; thioether N-14) | 10 to 99
CCCC[C@H]1C(=O)N[C@@H](CC(C)C)C(=O)N[C@H](C(=O)NCC(N)=O)CSCC(=O)N[C@@H](Cc2ccc(O)cc2)C(=O)N(C)[C@@H](C)C(=O)N[C@@H](CC(N)=O)C(=O)N2CCC[C@H]2C(=O)N[C@@H](Cc2cnc[nH]2)C(=O)N[C@@H](CCC(=O)O)C(=O)N2C[C@H](O)C[C@H]2C(=O)N[C@@H](Cc2c[nH]c3ccccc23)C(=O)N[C@@H](CCN)C(=O)N[C@@H](Cc2c[nH]c3ccccc23)C(=O)N(CC)[C@@H](C)C(=O)N1C [Example 3024] ({CH2CO}-Y[NMeA]NPHE[Hyp]W[Dab]W[NEtAla][NMeNle]LCG-NH2; thioether N-14) | 10 to 99
CCCC[C@H]1C(=O)N[C@@H](CC(C)C)C(=O)N[C@H](C(=O)NCC(N)=O)CSCC(=O)N[C@@H](Cc2ccc(O)cc2)C(=O)N(C)[C@@H](C)C(=O)N[C@@H](CC(N)=O)C(=O)N2CCC[C@H]2C(=O)N[C@@H](Cc2cnc[nH]2)C(=O)N[C@@H](CCC(=O)O)C(=O)N2C[C@H](O)C[C@H]2C(=O)N[C@@H](Cc2c[nH]c3ccccc23)C(=O)N[C@@H](CCN)C(=O)N[C@@H](Cc2c[nH]c3ccccc23)C(=O)N(CCOC)[C@@H](C)C(=O)N1C [Example 3025] ({CH2CO}-Y[NMeA]NPHE[Hyp]W[Dab]W[X7][NMeNle]LCG-NH2; thioether N-14) | 10 to 99
CCCC[C@H]1C(=O)N(C)[C@@H](CCCC)C(=O)N[C@@H](CC(C)C)C(=O)N[C@H](C(=O)NCC(N)=O)CSCC(=O)N[C@@H](Cc2ccc(O)cc2)C(=O)N(CCOC)[C@@H](C)C(=O)N[C@@H](CC(N)=O)C(=O)N2CCC[C@H]2C(=O)N[C@@H](Cc2cnc[nH]2)C(=O)N[C@@H](CCC(=O)O)C(=O)N2C[C@H](O)C[C@H]2C(=O)N[C@@H](Cc2c[nH]c3ccccc23)C(=O)N[C@@H](CCN)C(=O)N[C@@H](Cc2c[nH]c3ccccc23)C(=O)N1C [Example 3026] ({CH2CO}-Y[X7]NPHE[Hyp]W[Dab]W[NMeNle][NMeNle]LCG-NH2; thioether N-14) | 10 to 99
CCCC[C@H]1C(=O)N[C@@H](CC(C)C)C(=O)N[C@H](C(=O)NCC(N)=O)CSCC(=O)N[C@@H](Cc2ccc(O)cc2)C(=O)N(C)[C@@H](C)C(=O)N[C@@H](CC(N)=O)C(=O)N2CCC[C@H]2C(=O)N[C@@H](Cc2cnc[nH]2)C(=O)N[C@@H](CCC(=O)O)C(=O)N2C[C@H](O)C[C@H]2C(=O)N[C@@H](Cc2c[nH]c3ccccc23)C(=O)N[C@@H](CCN)C(=O)N[C@@H](Cc2c[nH]c3ccccc23)C(=O)N(CC(=O)O)[C@@H](C)C(=O)N1C [Example 3028] | 100 to 10000

Results, then the compound that gave them:

IC50 [nM] | SMILES
10 to 99 | CCCC[C@H]1C(=O)N(C)[C@@H](CCCC)C(=O)N[C@@H](CC(C)C)C(=O)N[C@H](C(=O)NCC(N)=O)CSCC(=O)N[C@@H](Cc2ccc(O)cc2)C(=O)N(C)[C@@H](C)C(=O)N[C@@H](CC(N)=O)C(=O)N(CC(=O)O)CC(=O)N[C@@H](Cc2cnc[nH]2)C(=O)N[C@@H](CCC(=O)O)C(=O)N2C[C@H](O)C[C@H]2C(=O)N[C@@H](Cc2c[nH]c3ccccc23)C(=O)N[C@@H](CCN)C(=O)N[C@@H](Cc2c[nH]c3ccccc23)C(=O)N1C [Example 3015]
10 to 99 | CCCC[C@H]1C(=O)N(C)[C@@H](CCCC)C(=O)N[C@@H](CC(C)C)C(=O)N[C@H](C(=O)NCC(N)=O)CSCC(=O)N[C@@H](Cc2ccc(O)cc2)C(=O)N(C)[C@@H](C)C(=O)N[C@@H](CC(N)=O)C(=O)N(CCO)CC(=O)N[C@@H](Cc2cnc[nH]2)C(=O)N[C@@H](CCC(=O)O)C(=O)N2C[C@H](O)C[C@H]2C(=O)N[C@@H](Cc2c[nH]c3ccccc23)C(=O)N[C@@H](CCN)C(=O)N[C@@H](Cc2c[nH]c3ccccc23)C(=O)N1C [Example 3016] ({CH2CO}-Y[NMeA]N[Gly(N-CH2CH2OH)]HE[Hyp]W[Dab]W[NMeNle][NMeNle]LCG-NH2; thioether N-14)
5 to 9.9 | CCCC[C@H]1C(=O)N(C)[C@@H](CCCC)C(=O)N[C@@H](CC(C)C)C(=O)N[C@H](C(=O)NCC(N)=O)CSCC(=O)N[C@@H](Cc2ccc(O)cc2)C(=O)N(CC)[C@@H](C)C(=O)N[C@@H](CC(N)=O)C(=O)N2CCC[C@H]2C(=O)N[C@@H](Cc2cnc[nH]2)C(=O)C[C@@H](CCC(=O)O)C(=O)N2C[C@H](O)C[C@H]2C(=O)N[C@@H](Cc2c[nH]c3ccccc23)C(=O)N[C@@H](CCN)C(=O)N[C@@H](Cc2c[nH]c3ccccc23)C(=O)N1C [Example 3017] ({CH2CO}-Y[NEtAla]NP[X6][Hyp]W[Dab]W[NMeNle][NMeNle]LCG-NH2; thioether N-13)
10 to 99 | CCCC[C@H]1C(=O)N(C)[C@@H](CCCC)C(=O)N[C@@H](CC(C)C)C(=O)N[C@H](C(=O)NCC(N)=O)CSCC(=O)N[C@@H](Cc2ccc(O)cc2)C(=O)N(Cc2ccccc2)[C@@H](C)C(=O)N[C@@H](CC(N)=O)C(=O)N2CCC[C@H]2C(=O)N[C@@H](Cc2cnc[nH]2)C(=O)N[C@@H](CCC(=O)O)C(=O)N2C[C@H](O)C[C@H]2C(=O)N[C@@H](Cc2c[nH]c3ccccc23)C(=O)N[C@@H](CCN)C(=O)N[C@@H](Cc2c[nH]c3ccccc23)C(=O)N1C [Example 3019] ({CH2CO}-Y[NBnAla]NPHE[Hyp]W[Dab]W[NMeNle][NMeNle]LCG-NH2; thioether N-14)
5 to 9.9 | CCCC[C@H]1C(=O)N(CC)[C@@H](C)C(=O)N[C@@H](CC(C)C)C(=O)N[C@H](C(=O)NCC(N)=O)CSCC(=O)N[C@@H](Cc2ccc(O)cc2)C(=O)N(C)[C@@H](C)C(=O)N[C@@H](CC(N)=O)C(=O)C2CCC[C@H]2C(=O)N[C@@H](Cc2cnc[nH]2)C(=O)N[C@@H](CCC(=O)O)C(=O)N2C[C@H](O)C[C@H]2C(=O)N[C@@H](Cc2c[nH]c3ccccc23)C(=O)N[C@@H](CCN)C(=O)N[C@@H](Cc2c[nH]c3ccccc23)C(=O)N1C (stereo partly drawn) [Example 3020] ({CH2CO}-Y[NMeA][X4]HE[Hyp]W[Dab]W[NMeNle][NEtAla]LCG-NH2; thioether N-13)
5 to 9.9 | CCCC[C@H]1C(=O)N(CC)[C@@H](CCCC)C(=O)N[C@@H](CC(C)C)C(=O)N[C@H](C(=O)NCC(N)=O)CSCC(=O)N[C@@H](Cc2ccc(O)cc2)C(=O)N(C)[C@@H](C)C(=O)N[C@@H](CC(N)=O)C(=O)N2CCC[C@H]2C(=O)N[C@@H](Cc2cnc[nH]2)C(=O)N[C@@H](CCC(=O)O)C(=O)N2C[C@H](O)C[C@H]2C(=O)N[C@@H](Cc2c[nH]c3ccccc23)C(=O)N[C@@H](CCN)C(=O)N[C@@H](Cc2c[nH]c3ccccc23)C(=O)N1C [Example 3021] ({CH2CO}-Y[NMeA]NPHE[Hyp]W[Dab]W[NMeNle][X5]LCG-NH2; thioether N-14)
10 to 99 | CCCC[C@H]1C(=O)N[C@@H](CC(C)C)C(=O)N[C@H](C(=O)NCC(N)=O)CSCC(=O)N[C@@H](Cc2ccc(O)cc2)C(=O)N(C)[C@@H](C)C(=O)N[C@@H](CC(N)=O)C(=O)N2CCC[C@H]2C(=O)N[C@@H](Cc2cnc[nH]2)C(=O)N[C@@H](CCC(=O)O)C(=O)N2C[C@H](O)C[C@H]2C(=O)N[C@@H](Cc2c[nH]c3ccccc23)C(=O)N[C@@H](CCN)C(=O)N[C@@H](Cc2c[nH]c3ccccc23)C(=O)N(CCN)[C@@H](C)C(=O)N1C [Example 3022] ({CH2CO}-Y[NMeA]NPHE[Hyp]W[Dab]W[X2][NMeNle]LCG-NH2; thioether N-14)
